The source of these data is patent US10407437B2, “Camptothecin derivatives and uses thereof” (Los Gatos Pharmaceuticals, Inc., priority 2016, dated 2019).

A word on the IC50: it is the concentration that gives 50% inhibition. As a reminder, the inhibition is the relative decrease from the control value, in per cent. A lower inhibition goes with little suppression.

For one experiment, the system named is HT29 cells. The experiment can be described thus: Anti-proliferative activity, AlamarBlue assay, HT29 cells. Format: cell-based, human. The settings on record: for % inhibition compared to SN38 / inhibition at 33.3 µM: HT29 cells; for % inhibition compared to SN38: highest concentration tested, 100 μM; for IC50: HT29 human colorectal adenocarcinoma cells, 48-72 hours with compound, AlamarBlue, sigmoidal logistic regression curve, read-out: IC50 of anti-proliferative drugs in HT29 cells; for inhibition at 33.3 µM: Homo sapiens. The protocol:
(§1) Human colorectal adenocarcinoma cell lines HT29 and SW620, as well as murine colon carcinoma cell line CT26, were purchased from the American Type Culture Collection (ATCC) and grown in either Dulbecco's Modified Eagle Medium (DMEM) or Roswell Park Memorial Institute (RPMI) medium from Corning and Life Technologies, respectively. These media were supplemented with 10% fetal bovine serum (FBS, Atlanta Biologicals), as well as 1 mM sodium pyruvate (Corning) and 10 mM HEPES (Fisher) for CT26 cells. Cells were grown in Corning 75 cm^2 flasks and split approximately 6 days before plating, with a refeed of fresh media the day prior to plating. Anti-proliferative drugs 2, 3 and SN38, were reconstituted in DMSO for storage at −20° C. until use. AlamarBlue, a colorimetric cell metabolism reagent, was purchased from Life Technologies.
To qualify AlamarBlue incubation time and required cell density, cells were plated into flat bottom 96 well plates (Techno Plastic Products, Trasadingen, Switzerland) at plating densities from 4×10^4 to 1.25×10^3 cells per well. The cells were incubated at 37° C. inside a Nu-Aire TS Autoflow incubator with 5% CO2 and humidity for 48-72 hours, AlamarBlue reagent was then added to all wells, equivalent to 10% of the culture volume or 20 μL. The plates were returned to the 37° C. incubator, and the absorbance at 570 and 600 nm were assessed using a Bio-Tek Epoch microplate reader at 1, 2, 4, 7 and in some experiment 24 hours post addition of AlamarBlue. Once the optimum cell density and incubation time was determined for each cell line, testing of the anti-proliferative drugs on the cells was initiated. For each cell line, cells were plated at 5×10^3 cells per well and incubated at 37° C. for 24 hours, at which time the anti-proliferative compounds were added. […] Aliquots of anti-proliferatives were thawed, diluted in media appropriate for each cell line, and serially diluted 1:3. A serial pipetter, was used to deliver 100 μl of each concentration of anti-proliferative compound to the appropriate wells in triplicate, the plate was tapped gently to mix, and then incubated at 37° C. for 48-72 hours. Control wells containing media alone and media with an equal percentage of DMSO in comparison to the initial anti-proliferative dilution were also established in each plate. After a minimum of 48 hours of incubation, 20 μl of AlamarBlue was added to each experimental well as well as the negative control wells. AlamarBlue positive control wells, containing 200 μl of 100% reduced AlamarBlue, were also established to provide a colorimetric endpoint reference for the assay. After addition of AlamarBlue, plates were incubated for 4 hours at 37° C. and absorbance assessed using the Epoch microplate reader. Absorbances were used to calculate the % inhibition for each well using the following equation, where O1 is the molar extinction coefficient of oxidized AlamarBlue at 570 nm (80586), O2 is the molar extinction coefficient of oxidized AlamarBlue at 600 nm (117216), A1 is the absorbance of the test wells at 570 nm, A2 is the absorbance of the test wells at 600 nm, P1 is the absorbance of the control wells with AlamarBlue but without test agent at 570, and P2 is the absorbance of the control wells with AlamarBlue but without the test agent at 600. % difference between=(O2×A1)−(O1×A2)×100treated and untreated cells (O2×P1)−(O1×P2)
(§2) The dose response data generated by these values was used to calculate the half maximal inhibitory concentration (IC50) using a regression curve (3 or 4 parameter logistic sigmoidal curve or sigmoidal sigmoid curve) in Sigma Plot, version 12.5. Statistical differences were calculated using SPSS Statistics software, version 17.0, using the independent t-test with an α of 0.05. […]
A general note: Alamar Blue is a resazurin reagent that responds to reducing activity.

For the next experiment, the system named is SW620 cells. The experiment can be described thus: Anti-proliferative activity, AlamarBlue assay, SW620 cells. The settings on record: for IC50: SW620 human colorectal adenocarcinoma cells, 48-72 hours with compound, AlamarBlue, sigmoidal regression curve, read-out: IC50 of anti-proliferative drugs in SW620 cells. Format: cell-based, human. The protocol:
as §1
To qualify AlamarBlue incubation time and required cell density, cells were plated into flat bottom 96 well plates (Techno Plastic Products, Trasadingen, Switzerland) at plating densities from 4×10^4 to 1.25×10^3 cells per well. The cells were incubated at 37° C. inside a Nu-Aire TS Autoflow incubator with 5% CO2 and humidity for 48-72 hours, AlamarBlue reagent was then added to all wells, equivalent to 10% of the culture volume or 20 μL. The plates were returned to the 37° C. incubator, and the absorbance at 570 and 600 nm were assessed using a Bio-Tek Epoch microplate reader at 1, 2, 4, 7 and in some experiment 24 hours post addition of AlamarBlue. Once the optimum cell density and incubation time was determined for each cell line, testing of the anti-proliferative drugs on the cells was initiated. […] After addition of AlamarBlue, plates were incubated for 4 hours at 37° C. and absorbance assessed using the Epoch microplate reader. Absorbances were used to calculate the % inhibition for each well using the following equation, where O1 is the molar extinction coefficient of oxidized AlamarBlue at 570 nm (80586), O2 is the molar extinction coefficient of oxidized AlamarBlue at 600 nm (117216), A1 is the absorbance of the test wells at 570 nm, A2 is the absorbance of the test wells at 600 nm, P1 is the absorbance of the control wells with AlamarBlue but without test agent at 570, and P2 is the absorbance of the control wells with AlamarBlue but without the test agent at 600. % difference between=(O2×A1)−(O1×A2)×100treated and untreated cells (O2×P1)−(O1×P2)
as §2

The test system of the next experiment is CT26 cells. Briefly: Anti-proliferative activity, AlamarBlue assay, CT26 cells. The experiment is classed as cell-based. The settings on record: CT26 murine colon carcinoma cells, 48-72 hours with compound, 4 parameter regression curve, read-out: IC50 of anti-proliferative drugs in CT26 cells. As to the method: as §1
To qualify AlamarBlue incubation time and required cell density, cells were plated into flat bottom 96 well plates (Techno Plastic Products, Trasadingen, Switzerland) at plating densities from 4×10^4 to 1.25×10^3 cells per well. […] The plates were returned to the 37° C. incubator, and the absorbance at 570 and 600 nm were assessed using a Bio-Tek Epoch microplate reader at 1, 2, 4, 7 and in some experiment 24 hours post addition of AlamarBlue. Once the optimum cell density and incubation time was determined for each cell line, testing of the anti-proliferative drugs on the cells was initiated. […] After addition of AlamarBlue, plates were incubated for 4 hours at 37° C. and absorbance assessed using the Epoch microplate reader. […]
as §2

Read-outs that look alike come from different tables or passages of the source. A value given as a limit tells only on which side of the number the result lay.

`CCCCC(=O)O[C@]1(CC)C(=O)OCc2c1cc1n(c2=O)Cc2c-1nc1ccc(O)cc1c2CC` [Compound 2]: in the experiment on HT29 cells, the “% inhibition compared to SN38” value is “not significantly different from SN38”. The IC50 turned out to be 5.6 µM with HT29 cells (HT-29), 1.9 µM with SW620 cells (SW-620) and 18 µM in the experiment with CT26 cells (Mus musculus). The molecule further returned an inhibition at 33.3 µM in the experiment on HT29 cells (HT-29) greater than 54%.
The corresponding values for `CCCCCCCCCCCCCC(=O)O[C@]1(CC)C(=O)OCc2c1cc1n(c2=O)Cc2c-1nc1ccc(O)cc1c2CC` [Compound 3] are “not significantly different from SN38”, 17.1 µM, 10.3 µM, 14.2 µM and greater than 54%.
Take `CCc1c2c(nc3ccc(O)cc13)-c1cc3c(c(=O)n1C2)COC(=O)[C@]3(O)CC` [SN38, reference compound]: the IC50 in the experiment on HT29 cells turned out to be 0.2 µM; in the experiment on SW620 cells it was 0.7 µM; with CT26 cells it was 0.6 µM. Besides, the “% inhibition” value in the experiment with SW620 cells (SW620 cells, throughout all concentrations tested (100 μM to 0.4 μM)) is on record as “over 55%”.
